In US20260374766A1, “METHODS FOR TREATING CANCER” (Antares Therapeutics, Inc., priority 2022, published 2026):
Like-named read-outs stand apart in the source and are kept apart here.

Key:
[1] = biological target: T1, p53 Y220C mutant protein (amino acid residues 94-293) (Homo sapiens, UniProt P04637, Y220C); experiment: Surface Plasmon Resonance (SPR) assay, Kd_kinetic; format: binding; conditions: read-out: SPR P53 Y220C KD kinetic
T1 construct: p53 Y220C mutant protein (amino acid residues 94-293)
In short: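 Biacore 8K SPR; 16 or 20 °C; Tris 50 mM pH 7.5, NaCl 100 mM, DTT 1 mM, Brij35 0.01%, Tween-20 0.05%, DMSO 1%. Kd_kinetic by 1:1 fit.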

[2] = biological target: T1, p53 Y220C mutant protein (amino acid residues 94-293); experiment: Thermal Shift Assay (TSA), dTM; format: binding; conditions: p53 Y220C, read-out: TSA P53 Y220C dTM; for ΔTm at 10 µM: 10 uM compound
In short: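 Recombinant p53 Y220C core (residues 94-293) at 5 μM was incubated with 10 μM or 100 μM compound for 3 hours at 20 °C in 20 mM HEPES pH7.4, 100 mM NaCl, 0.01% Pluronic F-127, 1% DMSO with 400-fold diluted Sypro Orange. Melting was followed from 30 °C to 50 °C at 0.03 °C/second, and TM came from a Boltzmann two-state fit.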

p53 Y220C = p53 Y220C (Homo sapiens, UniProt P04637, Y220C); experiment: Luciferase Reporter Assay (Luc), p53 response element, NClH1299 cells with inducible p53 Y220C; format: cell-based; conditions: luciferase reporter, NClH1299 inducible p53 Y220C, 6 hour; for AC50: read-out: Luc P53 Y220C AC50
In short: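 Luminescence readout (One-Glo, 5 min shaking at RT, read at once) after 6 h compound exposure; cells pre-induced 24 h with 0.5 ug/mL doxycycline, 5,000/well.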

NUGC3 p53 Y220C = experiment: Cell Proliferation Assay (CellTiter-Glo, CTG), NUGC3 p53 Y220C; format: cell-based; conditions: Homo sapiens, NUGC-3, 120 h, NUGC3 cells, 5 days, CellTiter-Glo
In short: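 Tet-One inducible p53 Y220C or R273H constructs were stably introduced into NCI-H1299 by lentiviral transduction; NUGC3 was used as is. Cells (250-500 per well) were exposed to compound for 5 days, then CellTiter-Glo was added for 10 min at room temperature and IC50 was calculated from luminescence.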

H1299 p53 Y220C = experiment: Cell Proliferation Assay (CellTiter-Glo, CTG), H1299 p53 Y220C (NClH1299-inducible p53 Y220C); format: cell-based; conditions: Homo sapiens, NCI-H1299, 120 h, NClH1299-inducible p53 Y220C cells, 5 days, CellTiter-Glo
In short: (§1)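 NClH1299 lines stably transduced with Tet-inducible p53 Y220C or R273H, plus NUGC3, were treated with compound for 5 days at 250-500 cells/well. IC50 derived from CellTiter-Glo luminescent signal after 10 min room-temperature incubation.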

H1299 p53 R273H = experiment: Cell Proliferation Assay (CellTiter-Glo, CTG), H1299 p53 R273H (NClH1299-inducible p53 R273H); format: cell-based; conditions: Homo sapiens, NCI-H1299, 120 h, NClH1299-inducible p53 R273H cells, 5 days, CellTiter-Glo
In short: as §1

SMILES	Kd ([1]; SPR, p53 Y220C) [nM]	ΔTm at 10 µM [2] [°C]	AC50 (p53 Y220C) [nM]	Emax (p53 Y220C) [%]	IC50 (H1299 p53 Y220C) [nM]	IC50 (H1299 p53 R273H) [nM]	ΔTm at 100 µM ([2]; 100 uM compound) [°C]	Kd [1] [nM]	IC50 (NUGC3 p53 Y220C) [nM]
CCNC(=O)c1ccc(NCC#Cc2nn3c(N[C@@H]4CCN(C)C[C@@H]4F)cccc3c2SC(F)F)c(OC)c1 [Example 317]	< 10	≥ 10	< 750	80 to 90	< 750	≥ 10000	–	–	< 750
CCNC(=O)c1ccc(OC)c(NCC#Cc2nn3c(N[C@@H]4CCN(C)C[C@@H]4F)cccc3c2SC(F)F)c1 [Example 318]	< 10	≥ 10	< 750	80 to 90	< 750	5000 to 8000	–	–	< 750
CNC(=O)c1ccc(NCC#Cc2nc3c(N[C@@H]4C[C@H]5CC[C@H](N5)[C@@H]4F)cccn3c2SC(F)(F)F)c(OC)c1 [Example 324, 4-{[3-(8-{[(1S,2S,3R,5R)-2-fluoro-8-azabicyclo[3.2.1]octan-3-yl]amino}-3-[(trifluoromethyl)sulfanyl]imidazo[1,2-a]pyridin-2-yl)prop-2-yn-1-yl]amino}-3-methoxy-N-methylbenzamide]	< 10	≥ 10	< 750	80 to 90	< 750	5000 to 8000	≥ 10	–	< 750
CNC(=O)c1cnc(OC)c(NCC#Cc2cc3c(N[C@@H]4CN(C)C[C@@H]4F)cccn3c2SC(F)(F)F)c1 [Example 338]	< 10	≥ 10	< 750	> 90	< 750	5000 to 8000	–	–	< 750
COc1cc(S(C)(=O)=O)ccc1NCC#Cc1cc2c(N[C@@H]3CN(C)C[C@@H]3F)cccn2c1SC(F)(F)F [Example 339]	< 10	≥ 10	< 750	80 to 90	< 750	5000 to 8000	–	–	< 750
COc1cc(S(C)(=O)=O)ccc1NCC#Cc1cc2c(N[C@@H]3CCN(C)C[C@@H]3F)cccn2c1SC(F)(F)F [Example 341]	< 10	≥ 10	< 750	> 90	< 750	5000 to 8000	–	–	< 750
CNC(=O)c1ccc(OC)c(NCC#Cc2cc3c(N[C@@H]4CCN(C)C[C@@H]4F)cccn3c2SC(F)F)c1 [Example 343]	< 10	≥ 10	< 750	> 90	< 750	≥ 10000	–	–	< 750
COc1cc(S(C)(=O)=O)ccc1NCC#Cc1cc2c(N[C@@H]3CCN(C)C[C@@H]3F)cccn2c1SC(F)F [Example 344]	< 10	≥ 10	< 750	> 90	< 750	5000 to 8000	–	–	< 750
COc1cc(P(C)(C)=O)ccc1NCC#Cc1cc2c(N[C@@H]3CCN(C)C[C@@H]3F)cccn2c1SC(F)(F)F [Example 346]	< 10	≥ 10	< 750	> 90	< 750	8000 to 10000	–	–	< 750
CNC(=O)c1cc(F)c(OC)c(NCC#Cc2nc3c(N[C@@H]4CCN(C)C[C@@H]4F)nccn3c2SC(F)(F)F)c1 [Example 347]	< 10	≥ 10	< 750	> 90	< 750	≥ 10000	–	–	< 750
COc1cc(P(C)(C)=O)ccc1NCC#Cc1cc2c(N[C@@H]3CCN(C)C[C@@H]3F)cccn2c1SC(F)F [Example 349]	< 10	≥ 10	< 750	80 to 90	< 750	≥ 10000	–	–	< 750
CNC(=O)c1ccc(NCC#Cc2cc3c(N[C@@H]4CCN(C)C[C@@H]4F)cccn3c2SC(F)(F)F)cc1 [Example 357]	< 10	≥ 10	< 750	> 90	< 750	5000 to 8000	–	–	< 750

Further lines, with some results ahead:

Kd ([1]; SPR, p53 Y220C) [nM]	ΔTm at 10 µM [2] [°C]	AC50 (p53 Y220C) [nM]	Emax (p53 Y220C) [%]	IC50 (H1299 p53 Y220C) [nM]	IC50 (H1299 p53 R273H) [nM]	ΔTm at 100 µM ([2]; 100 uM compound) [°C]	Kd [1] [nM]	SMILES	IC50 (NUGC3 p53 Y220C) [nM]
< 10	≥ 10	< 750	> 90	< 750	≥ 10000	–	–	CNC(=O)c1ccc(NCC#Cc2nc3c(N[C@@H]4CCNC[C@@H]4F)nccn3c2SC(F)(F)F)c(OC)c1 [Example 319]	< 750
< 10	≥ 10	< 750	> 90	< 750	≥ 10000	–	–	CNC(=O)c1ccc(OC)c(NCC#Cc2cc3c(N[C@@H]4CCN(C)C[C@@H]4F)nccn3c2SC(F)F)c1 [Example 321]	< 750
< 10	≥ 10	< 750	> 90	< 750	≥ 10000	–	–	CNC(=O)c1cnc(OC)c(NCC#Cc2cc3c(N[C@@H]4CCN(C)C[C@@H]4F)nccn3c2SC(F)F)c1 [Example 327]	< 750
< 10	≥ 10	< 750	> 90	< 750	< 5000	–	–	CNC(=O)c1ccc(OC2COC2)c(NCC#Cc2cc3c(N[C@@H]4CCN(C)C[C@@H]4F)nccn3c2SC(F)(F)F)c1 [Example 336]	< 750
< 10	≥ 10	< 750	80 to 90	< 750	≥ 10000	–	–	CNC(=O)c1ccc(OC)c(NCC#Cc2cc3c(N[C@@H]4CCNC[C@@H]4F)nccn3c2SC(F)(F)F)n1 [Example 340]	< 750
–	≥ 10	< 750	> 90	< 750	5000 to 8000	–	< 10	COc1cc(S(C)(=O)=O)ccc1NCC#Cc1cc2c(N[C@@H]3CCN(C)C[C@@H]3F)nccn2c1SC(F)(F)F [Example 342]	< 750
< 10	≥ 10	< 750	80 to 90	< 750	8000 to 10000	–	–	CNC(=O)c1ccc(OC)c(NCC#Cc2cc3c(N[C@@H]4CCN(C)C[C@@H]4F)cccn3c2SC(F)(F)F)n1 [Example 345]	< 750
< 10	≥ 10	< 750	> 90	< 750	≥ 10000	–	–	CNC(=O)c1ccc(C(=O)NC)c(NCC#Cc2cc3c(N[C@@H]4CCN(C)C[C@@H]4F)nccn3c2SC(F)(F)F)c1 [Example 348]	< 750
–	≥ 10	< 750	> 90	< 750	≥ 10000	–	< 10	CNC(=O)c1ccc(NCC#Cc2cc3c(N[C@@H]4CCN(C5COC5)C[C@@H]4F)nccn3c2SC(F)(F)F)c(OC)c1 [Example 350]	< 750
< 10	≥ 10	< 750	> 90	< 750	≥ 10000	–	–	CNC(=O)c1ccc(OC)c(NCC#Cc2cc3c(N[C@@H]4CCN(C5COC5)C[C@@H]4F)nccn3c2SC(F)(F)F)c1 [Example 351]	< 750
< 10	≥ 10	< 750	> 90	< 750	≥ 10000	–	–	CNC(=O)CN1CC[C@@H](Nc2nccn3c(SC(F)(F)F)c(C#CCNc4cc(C(=O)NC)ccc4OC)cc23)[C@@H](F)C1 [Example 352]	< 750
< 10	≥ 10	< 750	> 90	< 750	≥ 10000	–	–	CNC(=O)c1ccc(OC)c(NCC#Cc2cc3c(N[C@@H]4CCN(CC#N)C[C@@H]4F)nccn3c2SC(F)(F)F)c1 [Example 353]	< 750
< 10	≥ 10	< 750	> 90	< 750	5000 to 8000	–	–	CNC(=O)c1ccc(NCC#Cc2cc3c(N[C@@H]4CCNC[C@@H]4F)cccn3c2SC(F)(F)F)c(OC)c1 [Example 354]	< 750
